Assay results published in patent publication US6417141B1, “Substituted aminouracils” (Bayer Aktiengesellschaft, priority 1995, dated 2002).

What was measured:
Type in all cases: in vivo
Settings in all cases: greenhouse, 125 g/ha a.i., rated after three weeks vs untreated control
[1] = test system: Sinapis; assay: Post-emergence test
Method: (§1) Solvent: 5 parts by weight of acetone
(§2) Emulsifier: 1 part by weight of alkylaryl polyglycol ether
(§3) To produce a suitable preparation of active compound, 1 part by weight of active compound is mixed with the stated amount of solvent, the stated amount of emulsifier is added and the concentrate is diluted with water to the desired concentration.
(§4) Test plants which have a height of 5-15 cm are sprayed with the preparation of the active compound in such a way as to apply the particular amounts of active compound desired per unit area.
(§5) After three weeks, the degree of damage to the plants is rated in % damage by comparison with the development of the untreated control.
(§6) 0%=no effect (like untreated control)

[2] = test system: Amaranthus; assay: Post-emergence test
Method: as §1, §2, §3, §4, §5, §6

[3] = test system: Alopecurus; assay: Post-emergence test
Method: as §1, §2, §3, §4, §5, §6

[4] = test system: Xanthium; assay: Post-emergence test
Method: as §1, §2, §3, §4, §5, §6

[5] = test system: Avena; assay: Post-emergence test
Method: as §1, §2, §3, §4, §5, §6

[6] = test system: Cyperus; assay: Post-emergence test
Method: as §1, §2, §3, §4, §5, §6

[7] = test system: Setaria; assay: Post-emergence test
Method: as §1, §2, §3, §4, §5, §6

[8] = test system: Galium; assay: Post-emergence test
Method: as §1, §2, §3, §4, §5, §6

[9] = test system: Abutilon; assay: Post-emergence test
Method: as §1, §2, §3, §4, §5, §6

[10] = test system: Sinapis; assay: Pre-emergence test
Method: as §1, §2
(§7) To produce a suitable preparation of active compound, 1 part by weight of active compound is mixed with a stated amount of solvent, the stated amount of the emulsifier is added and the concentrate is diluted with water to the desired concentration.
(§8) Seeds of the test plants are sown in normal soil. After about 24 hours, the soil is watered with the preparation of the active compound. It is advantageous to keep the amount of water per unit area constant. The concentration of the active compound in the preparation is immaterial, only the amount of active compound applied per unit area matters.
as §5, §6

[11] = test system: Amaranthus; assay: Pre-emergence test
Method: as §1, §2, §7, §8, §5, §6

[12] = test system: Alopecurus; assay: Pre-emergence test
Method: as §1, §2, §7, §8, §5, §6

[13] = test system: Xanthium; assay: Pre-emergence test
Method: as §1, §2, §7, §8, §5, §6

[14] = test system: Avena; assay: Pre-emergence test
Method: as §1, §2, §7, §8, §5, §6

[15] = test system: Cyperus; assay: Pre-emergence test
Method: as §1, §2, §7, §8, §5, §6

[16] = test system: Setaria; assay: Pre-emergence test
Method: as §1, §2, §7, §8, §5, §6

[17] = test system: Galium; assay: Pre-emergence test
Method: as §1, §2, §7, §8, §5, §6

[18] = test system: Abutilon; assay: Pre-emergence test
Method: as §1, §2, §7, §8, §5, §6

COc1cc(-n2c(=O)cc(C(F)(F)F)n(N)c2=O)c(F)cc1C#N [Example 1, 1-(4-cyano-2-fluoro-5-methoxy-phenyl)-3,6-dihydro-2,6-dioxo-3-amino-4-trifluoromethyl-1(2H)-pyrimidine]
100%: degree of damage to the plants, Sinapis [1] | degree of damage to the plants, Amaranthus [2] | degree of damage to the plants, Alopecurus [3] | degree of damage to the plants, Xanthium [4] | degree of damage to the plants, Avena [5] | degree of damage to the plants, Cyperus [6] | degree of damage to the plants, Setaria [7] | degree of damage to the plants, Galium [8] | degree of damage to the plants, Abutilon [9] | degree of damage to the plants, Sinapis [10] | degree of damage to the plants, Amaranthus [11] | degree of damage to the plants, Alopecurus [12] | degree of damage to the plants, Xanthium [13] | degree of damage to the plants, Avena [14] | degree of damage to the plants, Cyperus [15] | degree of damage to the plants, Setaria [16] | degree of damage to the plants, Galium [17] | degree of damage to the plants, Abutilon [18]
